What was measured:
[1] = test system: chickweed; assay: Test Example 5: herbicidal effect by foliage application, plastic box (Table 20, symbol P); type: in vivo, common chickweed (Stellaria media); settings: foliage application, 320 g/ha, evaluated three weeks after application
Method in brief: (§1)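 Sow seeds spot-wise in sterilized diluvial soil; cover with ~1.5 cm soil. Grow 14 days in greenhouse, 25° C. to 30° C. Spray foliage with emulsion diluted to predetermined amount. Rate effect after 3 weeks.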

[2] = test system: Italian ryegrass; assay: Test Example 4: herbicidal effect by soil treatment (Table 19, symbol K); type: in vivo, Italian ryegrass (Lolium multiflorum); settings: amount of applied herbicide 320 g/ha
Method in brief: (§2)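 Soil-surface application: an emulsion agent diluted with water to the predetermined dose is sprayed uniformly over seeds lying under roughly 1.5 cm of sterilized diluvial soil. Boxes stay in a greenhouse at 25° C. to 30° C. Three weeks later, each species is graded on previously defined criteria.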

[3] = test system: late watergrass; assay: Test Example 1: herbicidal activity, application before weed generation under submerged conditions (Table 16, symbol A); type: in vivo, late watergrass (Echinochloa oryzicola); settings: 320 g/ha applied herbicide
Method in brief: (§3)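 Submerged Wagner pots (alluvial soil, 4 cm water) sown with weed seeds and planted with 2.5-leaf rice seedlings; emulsifiable concentrate diluted in water applied to water surface on sowing day. Held in greenhouse at 25-30 °C; injury scored 0-5 by herbicidal rate after three weeks.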

[4] = test system: velvetleaf; assay: Test Example 5: herbicidal effect by foliage application, plastic box (Table 20, symbol M); type: in vivo, velvetleaf (Abutilon theophrasti); settings: foliage application, 320 g/ha, evaluated three weeks after application
Method in brief: as §1

[5] = test system: windgrass; assay: Test Example 4: herbicidal effect by soil treatment (Table 19, symbol L); type: in vivo, windgrass (Apera spica-venti); settings: amount of applied herbicide 320 g/ha
Method in brief: as §2

[6] = test system: redroot pigweed; assay: Test Example 5: herbicidal effect by foliage application, plastic box (Table 20, symbol N); type: in vivo, redroot pigweed (Amaranthus retroflexus); settings: foliage application, 320 g/ha, evaluated three weeks after application
Method in brief: as §1

[7] = test system: barnyard grass; assay: Test Example 5: herbicidal effect by foliage application, plastic box (Table 20, symbol H); type: in vivo, barnyard grass (Echinochloa crus-galli); settings: foliage application, 320 g/ha, evaluated three weeks after application
Method in brief: as §1

[8] = test system: lambsquarters; assay: Test Example 4: herbicidal effect by soil treatment (Table 19, symbol O); type: in vivo, lambsquarters (Chenopodium album); settings: amount of applied herbicide 320 g/ha
Method in brief: as §2

[9] = test system: barnyard grass; assay: Test Example 4: herbicidal effect by soil treatment (Table 19, symbol H); type: in vivo, barnyard grass (Echinochloa crus-galli); settings: amount of applied herbicide 320 g/ha
Method in brief: as §2

[10] = test system: barnyard grass; assay: Test Example 3: herbicidal effect by foliage application, Wagner pot (Table 18, symbol H); type: in vivo, barnyard grass (Echinochloa crus-galli); settings: amount of applied herbicide 320 g/ha
Method in brief: (§4)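 Plants were sown in alluvial soil held under 0.1–0.5 cm standing water and grown 14 days in a greenhouse at 25–30 °C. An emulsifiable formulation, water-diluted to the set dose, was then sprayed onto the foliage, and effects were scored three weeks later using previously defined criteria.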

[11] = test system: green foxtail; assay: Test Example 4: herbicidal effect by soil treatment (Table 19, symbol G); type: in vivo, green foxtail (Setaria viridis); settings: amount of applied herbicide 320 g/ha
Method in brief: as §2

[12] = test system: velvetleaf; assay: Test Example 4: herbicidal effect by soil treatment (Table 19, symbol M); type: in vivo, velvetleaf (Abutilon theophrasti); settings: amount of applied herbicide 320 g/ha
Method in brief: as §2

[13] = test system: persian speedwell; assay: Test Example 5: herbicidal effect by foliage application, plastic box (Table 20, symbol R); type: in vivo, Persian speedwell (Veronica persica); settings: foliage application, 320 g/ha, evaluated three weeks after application
Method in brief: as §1

[14] = test system: Japanese bulrush; assay: Test Example 1: herbicidal activity, application before weed generation under submerged conditions (Table 16, symbol B); type: in vivo, Japanese bulrush (Schoenoplectus juncoides); settings: 320 g/ha applied herbicide
Method in brief: as §3

[15] = test system: blackgrass; assay: Test Example 5: herbicidal effect by foliage application, plastic box (Table 20, symbol J); type: in vivo, blackgrass (Alopecurus myosuroides); settings: foliage application, 320 g/ha, evaluated three weeks after application
Method in brief: as §1

[16] = test system: wild oat; assay: Test Example 5: herbicidal effect by foliage application, plastic box (Table 20, symbol I); type: in vivo, wild oat (Avena fatua); settings: foliage application, 320 g/ha, evaluated three weeks after application
Method in brief: as §1

[17] = test system: persian speedwell; assay: Test Example 4: herbicidal effect by soil treatment (Table 19, symbol R); type: in vivo, Persian speedwell (Veronica persica); settings: amount of applied herbicide 320 g/ha
Method in brief: as §2

[18] = test system: rice flat sedge; assay: Test Example 3: herbicidal effect by foliage application, Wagner pot (Table 18, symbol E); type: in vivo, rice flat sedge (Cyperus iria); settings: amount of applied herbicide 320 g/ha
Method in brief: as §4

[19] = test system: Chinese sprangletop; assay: Test Example 3: herbicidal effect by foliage application, Wagner pot (Table 18, symbol D); type: in vivo, chinese sprangletop (Leptochloa chinensis); settings: amount of applied herbicide 320 g/ha
Method in brief: as §4

[20] = test system: chickweed; assay: Test Example 4: herbicidal effect by soil treatment (Table 19, symbol P); type: in vivo, common chickweed (Stellaria media); settings: amount of applied herbicide 320 g/ha
Method in brief: as §2

[21] = test system: windgrass; assay: Test Example 5: herbicidal effect by foliage application, plastic box (Table 20, symbol L); type: in vivo, windgrass (Apera spica-venti); settings: foliage application, 320 g/ha, evaluated three weeks after application
Method in brief: as §1

[22] = test system: blackgrass; assay: Test Example 4: herbicidal effect by soil treatment (Table 19, symbol J); type: in vivo, blackgrass (Alopecurus myosuroides); settings: amount of applied herbicide 320 g/ha
Method in brief: as §2

[23] = test system: lambsquarters; assay: Test Example 5: herbicidal effect by foliage application, plastic box (Table 20, symbol O); type: in vivo, lambsquarters (Chenopodium album); settings: foliage application, 320 g/ha, evaluated three weeks after application
Method in brief: as §1

[24] = test system: southern crabgrass; assay: Test Example 4: herbicidal effect by soil treatment (Table 19, symbol F); type: in vivo, southern crabgrass (Digitaria ciliaris); settings: amount of applied herbicide 320 g/ha
Method in brief: as §2

[25] = test system: Italian ryegrass; assay: Test Example 5: herbicidal effect by foliage application, plastic box (Table 20, symbol K); type: in vivo, Italian ryegrass (Lolium multiflorum); settings: foliage application, 320 g/ha, evaluated three weeks after application
Method in brief: as §1

[26] = test system: wild oat; assay: Test Example 4: herbicidal effect by soil treatment (Table 19, symbol I); type: in vivo, wild oat (Avena fatua); settings: amount of applied herbicide 320 g/ha
Method in brief: as §2

[27] = test system: redroot pigweed; assay: Test Example 4: herbicidal effect by soil treatment (Table 19, symbol N); type: in vivo, redroot pigweed (Amaranthus retroflexus); settings: amount of applied herbicide 320 g/ha
Method in brief: as §2

[28] = test system: oval-leafed pondweed; assay: Test Example 1: herbicidal activity, application before weed generation under submerged conditions (Table 16, symbol C); type: in vivo, oval-leafed pondweed (Monochoria vaginalis); settings: 320 g/ha applied herbicide
Method in brief: as §3

[29] = test system: green foxtail; assay: Test Example 5: herbicidal effect by foliage application, plastic box (Table 20, symbol G); type: in vivo, green foxtail (Setaria viridis); settings: foliage application, 320 g/ha, evaluated three weeks after application
Method in brief: as §1

[30] = test system: southern crabgrass; assay: Test Example 5: herbicidal effect by foliage application, plastic box (Table 20, symbol F); type: in vivo, southern crabgrass (Digitaria ciliaris); settings: foliage application, 320 g/ha, evaluated three weeks after application
Method in brief: as §1

Compound | herbicidal effect on P: chickweed (criteria 0-5) [1] | Herbicidal effect on A: late watergrass (grade 0-5) [3] | herbicidal effect on M: velvetleaf (criteria 0-5) [4] | herbicidal effect on N: redroot pigweed (criteria 0-5) [6] | herbicidal effect on H: barnyard grass (criteria 0-5) [7] | herbicidal effect on H: barnyard grass [10] | herbicidal effect on R: persian speedwell (criteria 0-5) [13] | Herbicidal effect on B: Japanese bulrush (grade 0-5) [14] | herbicidal effect on J: blackgrass (criteria 0-5) [15] | herbicidal effect on I: wild oat (criteria 0-5) [16] | herbicidal effect on E: rice flat sedge [18] | herbicidal effect on D: Chinese sprangletop [19] | herbicidal effect on L: windgrass (criteria 0-5) [21] | herbicidal effect on O: lambsquarters (criteria 0-5) [23] | herbicidal effect on K: Italian ryegrass (criteria 0-5) [25] | Herbicidal effect on C: oval-leafed pondweed (grade 0-5) [28] | herbicidal effect on G: green foxtail (criteria 0-5) [29] | herbicidal effect on F: southern crabgrass (criteria 0-5) [30] | other results
CCCOc1cccc(-c2sc3ccc(F)cc3c2-c2c(O)c(C)nn(C)c2=O)c1 [2-213] | 5 (Herbicidal rate of 90% or more (almost completely withered)) | 3 (Herbicidal rate of 40% or more and less than 70%) | 1 (Herbicidal rate of 5% or more and less than 20%) | 5 (Herbicidal rate of 90% or more (almost completely withered)) | 3 (Herbicidal rate of 40% or more and less than 70%) | 4 (Herbicidal rate of 70% or more and less than 90%) | 5 (Herbicidal rate of 90% or more (almost completely withered)) | 0 (Herbicidal rate of 5% or less (almost no effect)) | 3 (Herbicidal rate of 40% or more and less than 70%) | 0 (Herbicidal rate of 5% or less (almost no effect)) | 3 (Herbicidal rate of 40% or more and less than 70%) | 3 (Herbicidal rate of 40% or more and less than 70%) | 4 (Herbicidal rate of 70% or more and less than 90%) | 4 (Herbicidal rate of 70% or more and less than 90%) | 4 (Herbicidal rate of 70% or more and less than 90%) | 0 (Herbicidal rate of 5% or less (almost no effect)) | 4 (Herbicidal rate of 70% or more and less than 90%) | 5 (Herbicidal rate of 90% or more (almost completely withered)) | K: Italian ryegrass, herbicidal effect rating [2]: 4 (Herbicidal rate of 70% or more and less than 90%); L: windgrass, herbicidal effect rating [5]: 0 (Herbicidal rate of 5% or less (almost no effect)); O: lambsquarters, herbicidal effect rating [8]: 1 (Herbicidal rate of 5% or more and less than 20%); H: barnyard grass, herbicidal effect rating [9]: 3 (Herbicidal rate of 40% or more and less than 70%); G: green foxtail, herbicidal effect rating [11]: 4 (Herbicidal rate of 70% or more and less than 90%); M: velvetleaf, herbicidal effect rating [12]: 0 (Herbicidal rate of 5% or less (almost no effect)); R: persian speedwell, herbicidal effect rating [17]: 5 (Herbicidal rate of 90% or more (almost completely withered)); P: chickweed, herbicidal effect rating [20]: 3 (Herbicidal rate of 40% or more and less than 70%); J: blackgrass, herbicidal effect rating [22]: 0 (Herbicidal rate of 5% or less (almost no effect)); F: southern crabgrass, herbicidal effect rating [24]: 5 (Herbicidal rate of 90% or more (almost completely withered)); I: wild oat, herbicidal effect rating [26]: 0 (Herbicidal rate of 5% or less (almost no effect)); N: redroot pigweed, herbicidal effect rating [27]: 5 (Herbicidal rate of 90% or more (almost completely withered))
CCCCCCOc1cccc(-c2sc3ccc(F)cc3c2-c2c(O)c(C)nn(C)c2=O)c1 [2-226] | 4 (Herbicidal rate of 70% or more and less than 90%) | 2 (Herbicidal rate of 20% or more and less than 40%) | 4 (Herbicidal rate of 70% or more and less than 90%) | 5 (Herbicidal rate of 90% or more (almost completely withered)) | 0 (Herbicidal rate of 5% or less (almost no effect)) | 4 (Herbicidal rate of 70% or more and less than 90%) | 0 (Herbicidal rate of 5% or less (almost no effect)) | 0 (Herbicidal rate of 5% or less (almost no effect)) | 0 (Herbicidal rate of 5% or less (almost no effect)) | 0 (Herbicidal rate of 5% or less (almost no effect)) | 3 (Herbicidal rate of 40% or more and less than 70%) | 3 (Herbicidal rate of 40% or more and less than 70%) | 5 (Herbicidal rate of 90% or more (almost completely withered)) | 4 (Herbicidal rate of 70% or more and less than 90%) | 0 (Herbicidal rate of 5% or less (almost no effect)) | 0 (Herbicidal rate of 5% or less (almost no effect)) | 0 (Herbicidal rate of 5% or less (almost no effect)) | 0 (Herbicidal rate of 5% or less (almost no effect)) | herbicidal effect on K: Italian ryegrass [2]: 0 (Herbicidal rate of 5% or less (almost no effect)); herbicidal effect on L: windgrass [5]: 0 (Herbicidal rate of 5% or less (almost no effect)); herbicidal effect on O: lambsquarters [8]: 0 (Herbicidal rate of 5% or less (almost no effect)); herbicidal effect on H: barnyard grass [9]: 0 (Herbicidal rate of 5% or less (almost no effect)); herbicidal effect on G: green foxtail [11]: 0 (Herbicidal rate of 5% or less (almost no effect)); herbicidal effect on M: velvetleaf [12]: 0 (Herbicidal rate of 5% or less (almost no effect)); herbicidal effect on R: persian speedwell [17]: 0 (Herbicidal rate of 5% or less (almost no effect)); herbicidal effect on P: chickweed [20]: 0 (Herbicidal rate of 5% or less (almost no effect)); herbicidal effect on J: blackgrass [22]: 0 (Herbicidal rate of 5% or less (almost no effect)); herbicidal effect on F: southern crabgrass [24]: 0 (Herbicidal rate of 5% or less (almost no effect)); herbicidal effect on I: wild oat [26]: 0 (Herbicidal rate of 5% or less (almost no effect)); herbicidal effect on N: redroot pigweed [27]: 3 (Herbicidal rate of 40% or more and less than 70%)
